From US12570656B2, “Purine compounds for treating disorders” (MARVEL BIOTECHNOLOGY, priority 2020, dated 2026)
Where “and” joins values, the source holds several entries; their conditions need not be identical. Identical values can stand only once. Like-named read-outs stand apart in the source and are kept apart here.

Legend:
[1] = Plasma pharmacokinetics in male CD-1 mice (1 mg/kg i.v. or 3 mg/kg p.o.); conditions: CD-1, mouse, in vivo
Procedure: (§1) Male CD-1 mice were given either bolus 1 mg/kg i.v. or 3 mg/kg p.o. of the indicated compounds and plasma or brain concentrations were measured.
(§2) Where: • C0 concentration extrapolated to time zero following an i.v. dose • tmax time at which maximum concentration is observed • Cmax maximum observed concentration • Apparent t1/2 apparent terminal half-life • AUC0-tlast area under the concentration vs time curve from time 0 to the time of the last measurable concentration • AUC0-inf area under the concentration vs time curve from time 0 to infinity • CL systemic clearance • MRT0-inf mean residence time from time zero to infinity • Vss steady-state volume of distribution • F oral bioavailability=(Dose^iv*AUC^po)/(Dose^po*AUC^iv)*100

[2] = Brain pharmacokinetics and brain/plasma ratio in male CD-1 mice (1 mg/kg i.v.); assay type: in vivo; conditions: for concentration at 5 min / concentration at 0.25 h / concentration at 0.5 h / concentration at 1 h / concentration at 2 h / concentration at 4 h / concentration at 6 h / concentration at 8 h: intravenous
Procedure: as §1, §2

[3] = male, CD-1, mouse, iv, brain, i.v. 1 mg/kg

bioavailability [1]: 30.9%
AUC(0-inf) ([1]; iv, 1 mg/kg): 1440 ng·h/mL
AUC(0-t) ([1]; iv, 1 mg/kg): 1420 ng·h/mL
Cmax ([1]; iv, 1 mg/kg): 745 ng/mL
MRT inf ([1]; iv, 1 mg/kg): 1.96 h
Tmax ([1]; iv, 1 mg/kg): 0.25 h
Vd ([1]; iv, 1 mg/kg): 1.36 L/kg
clearance ([1]; iv, 1 mg/kg): 11.6 mL/min/kg
half-life ([1]; iv, 1 mg/kg): 1.35 h
AUC(0-inf) ([1]; po, 3 mg/kg): 1340 ng·h/mL
AUC(0-t) ([1]; po, 3 mg/kg): 1340 ng·h/mL
Cmax ([1]; po, 3 mg/kg): 250 ng/mL
MRT inf ([1]; po, 3 mg/kg): 3.82 h
Tmax ([1]; po, 3 mg/kg): 1 h
half-life ([1]; po, 3 mg/kg): 2.2 h
Brain concentration ([2]; 1 mg/kg bolus i.v., 5 min, individual animals 1-3): 423 ng/g and 691 ng/g
Brain concentration ([2]; 1 mg/kg bolus i.v., 0.25 h, individual animals 1-3): 474 ng/g and 418 ng/g
Brain concentration ([2]; 1 mg/kg bolus i.v., 0.5 h, individual animals 1-3): 230 ng/g and 235 ng/g
Brain concentration ([2]; 1 mg/kg bolus i.v., 1 h, individual animals 1-3): 209 ng/g and 237 ng/g
Brain concentration ([2]; 1 mg/kg bolus i.v., 2 h, individual animals 1-3): 180 ng/g and 156 ng/g
Brain concentration ([2]; 1 mg/kg bolus i.v., 4 h, individual animals 1-3): 76.8 ng/g and 79.5 ng/g
Brain concentration ([2]; 1 mg/kg bolus i.v., 6 h, individual animals 1-3): 50.1 ng/g and 32.6 ng/g
Brain concentration ([2]; 1 mg/kg bolus i.v., 8 h, individual animals 1-3): 22.2 ng/g and 17.1 ng/g
AUC0-tlast ([2]; brain, i.v. 1 mg/kg): 938 ng·h/g
AUC(0-inf) ([2]; brain, i.v. 1 mg/kg): 1011 ng·h/g
Kp at 5 min ([2]; male, CD-1, mouse, brain and plasma, iv, 1 mg/kg, 1 mg/kg bolus i.v., 5 min, individual animals 1-3, read-out: Brain/plasma concentration ratio): 0.726
Kp at 5 min ([2]; male, CD-1, mouse, brain and plasma, iv, 1 mg/kg, 1 mg/kg bolus i.v., 5 min, read-out: Brain/plasma concentration ratio, Mean): 0.828
Kp at 0.25 h ([2]; male, CD-1, mouse, brain and plasma, iv, 1 mg/kg, 1 mg/kg bolus i.v., 0.25 h, individual animals 1-3, read-out: Brain/plasma concentration ratio): 0.42
Kp at 0.25 h ([2]; male, CD-1, mouse, brain and plasma, iv, 1 mg/kg, 1 mg/kg bolus i.v., 0.25 h, read-out: Brain/plasma concentration ratio, Mean): 0.516
Kp at 0.5 h ([2]; male, CD-1, mouse, brain and plasma, iv, 1 mg/kg, 1 mg/kg bolus i.v., 0.5 h, read-out: Brain/plasma concentration ratio, Mean): 0.483
Kp at 8 h ([2]; male, CD-1, mouse, brain and plasma, iv, 1 mg/kg, 1 mg/kg bolus i.v., 8 h, individual animals 1-3, read-out: Brain/plasma concentration ratio): 2.76
Kp at 8 h ([2]; male, CD-1, mouse, brain and plasma, iv, 1 mg/kg, 1 mg/kg bolus i.v., 8 h, read-out: Brain/plasma concentration ratio, Mean): 2.25
concentration at 5 min ([2]; male, CD-1, mouse, brain, 1 mg/kg, 1 mg/kg bolus i.v., 5 min, individual animals 1-3, read-out: Brain concentration): 545 ng/g
concentration at 5 min ([2]; male, CD-1, mouse, brain, 1 mg/kg, 1 mg/kg bolus i.v., 5 min, read-out: Brain concentration, Mean): 553 ng/g
concentration at 0.25 h ([2]; male, CD-1, mouse, brain, 1 mg/kg, 1 mg/kg bolus i.v., 0.25 h, individual animals 1-3, read-out: Brain concentration): 272 ng/g
concentration at 0.25 h ([2]; male, CD-1, mouse, brain, 1 mg/kg, 1 mg/kg bolus i.v., 0.25 h, read-out: Brain concentration, Mean): 388 ng/g
concentration at 0.5 h ([2]; male, CD-1, mouse, brain, 1 mg/kg, 1 mg/kg bolus i.v., 0.5 h, individual animals 1-3, read-out: Brain concentration): 372 ng/g
concentration at 0.5 h ([2]; male, CD-1, mouse, brain, 1 mg/kg, 1 mg/kg bolus i.v., 0.5 h, read-out: Brain concentration, Mean): 279 ng/g
concentration at 1 h ([2]; male, CD-1, mouse, brain, 1 mg/kg, 1 mg/kg bolus i.v., 1 h, individual animals 1-3, read-out: Brain concentration): 225 ng/g
concentration at 1 h ([2]; male, CD-1, mouse, brain, 1 mg/kg, 1 mg/kg bolus i.v., 1 h, read-out: Brain concentration, Mean): 224 ng/g
concentration at 2 h ([2]; male, CD-1, mouse, brain, 1 mg/kg, 1 mg/kg bolus i.v., 2 h, individual animals 1-3, read-out: Brain concentration): 171 ng/g
concentration at 2 h ([2]; male, CD-1, mouse, brain, 1 mg/kg, 1 mg/kg bolus i.v., 2 h, read-out: Brain concentration, Mean): 169 ng/g
concentration at 4 h ([2]; male, CD-1, mouse, brain, 1 mg/kg, 1 mg/kg bolus i.v., 4 h, individual animals 1-3, read-out: Brain concentration): 107 ng/g
concentration at 4 h ([2]; male, CD-1, mouse, brain, 1 mg/kg, 1 mg/kg bolus i.v., 4 h, read-out: Brain concentration, Mean): 87.8 ng/g
concentration at 6 h ([2]; male, CD-1, mouse, brain, 1 mg/kg, 1 mg/kg bolus i.v., 6 h, individual animals 1-3, read-out: Brain concentration): 39.8 ng/g
concentration at 6 h ([2]; male, CD-1, mouse, brain, 1 mg/kg, 1 mg/kg bolus i.v., 6 h, read-out: Brain concentration, Mean): 40.8 ng/g
concentration at 8 h ([2]; male, CD-1, mouse, brain, 1 mg/kg, 1 mg/kg bolus i.v., 8 h, individual animals 1-3, read-out: Brain concentration): 33.4 ng/g
concentration at 8 h ([2]; male, CD-1, mouse, brain, 1 mg/kg, 1 mg/kg bolus i.v., 8 h, read-out: Brain concentration, Mean): 24.2 ng/g
Kp at 1 h ([2]; male, CD-1, mouse, brain/plasma, iv, 1 mg/kg, 1 mg/kg bolus i.v., 1 h, individual animals 1-3, read-out: Brain/plasma concentration ratio): 0.534
Kp at 1 h ([2]; male, CD-1, mouse, brain/plasma, iv, 1 mg/kg, 1 mg/kg bolus i.v., 1 h, read-out: Brain/plasma concentration ratio, Mean): 0.551
Kp at 2 h ([2]; male, CD-1, mouse, brain/plasma, iv, 1 mg/kg, 1 mg/kg bolus i.v., 2 h, individual animals 1-3, read-out: Brain/plasma concentration ratio): 0.71
Kp at 2 h ([2]; male, CD-1, mouse, brain/plasma, iv, 1 mg/kg, 1 mg/kg bolus i.v., 2 h, read-out: Brain/plasma concentration ratio, Mean): 0.655
Kp at 4 h ([2]; male, CD-1, mouse, brain/plasma, iv, 1 mg/kg, 1 mg/kg bolus i.v., 4 h, individual animals 1-3, read-out: Brain/plasma concentration ratio): 0.87
Kp at 4 h ([2]; male, CD-1, mouse, brain/plasma, iv, 1 mg/kg, 1 mg/kg bolus i.v., 4 h, read-out: Brain/plasma concentration ratio, Mean): 1
Kp at 6 h ([2]; male, CD-1, mouse, brain/plasma, iv, 1 mg/kg, 1 mg/kg bolus i.v., 6 h, read-out: Brain/plasma concentration ratio, Mean): 0.96
Kp ([2]; male, CD-1, mouse, brain/plasma, iv, 1 mg/kg, i.v. 1 mg/kg, read-out: Brain/plasma AUC0-inf ratio): 0.701
Cmax [2, 3]: 553 ng/g
Tmax [2, 3]: 5 min
half-life ([2]; male, CD-1, mouse, iv, brain, i.v. 1 mg/kg, read-out: Apparent t1/2 (converted)): 2.1 h
MRT inf ([2]; male, CD-1, mouse, iv, brain, i.v. 1 mg/kg, read-out: MRT0-inf): 2.96 h
SMILES: CCn1c(=O)c2c(nc(/C=C/c3ccc(OC)c(OC)c3)n2C)n(CC)c1=O [Istradefylline, reference compound]
